Experimental data from patent US9447035B2, “Integrin antagonist conjugates for targeted delivery to cells expressing VLA-4” (Hoffmann-La Roche Inc., priority 2012, dated 2016).

System: AML MV4-11 cells
Experiment: siRNA uptake in AML MV4-11 cells by imaging flow cytometry
Assay type: cell-based
Experimental: AML MV4-11 cells in growth medium (RPMI 1640 with 10% FBS) were incubated with Duplex-27 (500 nM) for 1 hour at 37° C. For determining VLA-4 independent binding, 140 (10 μM) was included in one condition to block VLA-4 dependent binding. After incubation, the cells were then washed twice with D-PBS and fixed in 1% paraformaldehyde for 10 minutes. The uptake of siRNA was analyzed by imaging flow cytometry using ImageStreamx (Aminis Corporation, Seattle).

Cc1cccc(Cl)c1C(=O)N[C@@H](Cc1ccc(NC(=O)c2c(Cl)cccc2Cl)cc1)C(=O)O [Example 140]
Mean Cy3 intensity (140 alone at 10 μM, 1 hour at 37° C.): 663
effect on the histograph shift of the VLA-4-targeted siRNA duplex (VLA-4 antagonist 140 present): this shift is oblated
